Consider 8 molecules from ChEMBL document CHEMBL1201862, “PubChem BioAssay data set” (2004).

SMILES strings stand for the structures.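 How tested: cells in 96-well plates exposed to compound for 48 hours at five concentrations. GI50 is the concentration that inhibits growth by half.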 The source made the active and inactive calls. Rule as the data show it: active = GI50 up to about 1.1 µM and inactive = higher. *1 amine or outer side, *2 acyl side, *3 side chain or, on linkers, in order; H or OH if unused. Where a SMILES comes first, the peptide text is derived from it. [ ]: non-standard residue; d: D form. The star is where a group is joined. X31 = CC(=O)N(C)SCC(N[*:1])C(=O)[*:2]; Fmoc = O=C(OCC1c2ccccc2-c2ccccc21)*; For = O=C*

Test systems include CAKI-1; EKVX; HCT-116; HCT-15; HL-60; HT-29; Hs-578T; MCF7; NCI-H226; NCI/ADR-RES; OVCAR-4; PC-3; RXF 393; SF-268; SK-OV-3; TK-10; UACC-257; UACC-62; CCRF-CEM.
What all share (assay): NCI-60 cell line screen, 48 h

Turning to `O=C1NC(NCc2ccc(F)cc2)=N/C1=C\c1ccccc1Cl`, the GI50 with CAKI-1 was 23.9 µM (inactive); with EKVX, 19.8 µM (inactive); with HCT-116 it was 14.5 µM (inactive); in the test on HCT-15, 19.1 µM; in the test on HL-60 it was 13.4 µM (inactive); in the test with HT-29 it was 15 µM (inactive). Besides, the GI50 in the test with Hs-578T is 30.5 µM (inactive); in the test on MCF7, 19.6 µM (inactive); in the test on NCI-H226, 18.1 µM (inactive); in the test on NCI/ADR-RES it was 20.1 µM (inactive); with OVCAR-4 it was 23.9 µM (inactive); in the test with PC-3, 15.9 µM (inactive). Further, the GI50 is 19.6 µM (inactive) with RXF 393; 24.2 µM (inactive) in the test with SF-268; 26.3 µM (inactive) with SK-OV-3; 21.5 µM (inactive) in the test on TK-10; 24.9 µM (inactive) with UACC-257; 15.7 µM (inactive) with UACC-62.
On to `N#Cc1nsnc1-c1nc(-c2nsnc2C#N)nc(-c2nsnc2C#N)n1`, for which the GI50 in the test with CAKI-1 was > 100 µM (inactive); in the test on EKVX, > 100 µM (inactive); with HCT-116 it was > 100 µM (inactive); in the test with HCT-15 it was over 100 µM; in the test on HL-60, 76.6 µM (inactive); in the test on HT-29, > 100 µM (inactive). In addition, the GI50 in the test with Hs-578T is 37.7 µM (inactive); in the test on MCF7, > 100 µM (inactive); with NCI-H226, > 100 µM (inactive); in the test on NCI/ADR-RES, > 100 µM (inactive); in the test on OVCAR-4, > 100 µM (inactive); with PC-3, > 100 µM (inactive). Also, the GI50 in the test on RXF 393 is 63.8 µM (inactive); with SF-268 it was > 100 µM (inactive); in the test with TK-10, 71.4 µM (inactive); with UACC-257, > 100 µM (inactive); with UACC-62 it was > 100 µM (inactive).
On to `C[C@]12CCC(N3CCCC3)CC1=CC[C@@H]1[C@@H]2CC[C@]2(C)C(O)[C@H](n3ccnc3)C[C@@H]12` (stereo partly specified), for which the GI50 in the test with CAKI-1 was > 100 µM (inactive); in the test with CCRF-CEM it was 15.7 µM (inactive); in the test with EKVX it was > 100 µM (inactive); in the test on HCT-116 it was 38.1 µM (inactive); in the test on HCT-15, 20.9 µM; with HL-60, 5.58 µM (inactive). For the same molecule, the GI50 is 5.85 µM (inactive) in the test on HT-29; > 10 µM (inactive) in the test on Hs-578T; 45 µM (inactive) in the test on MCF7; > 100 µM (inactive) in the test with NCI-H226; > 100 µM (inactive) in the test on NCI/ADR-RES; 73.6 µM (inactive) in the test with OVCAR-4. Besides, the GI50 was 36.7 µM (inactive) with PC-3; 17.4 µM (inactive) with RXF 393; > 10 µM (inactive) in the test on SF-268; > 100 µM (inactive) with TK-10; 38.6 µM (inactive) with UACC-257; 32.1 µM (inactive) with UACC-62.
In the case of `CCOC(=O)CCC(NC(=O)OCc1ccccc1)C(=O)NNC(=O)OC(C)(C)C` (stereo unspecified), the GI50 in the test on CAKI-1 was > 100 µM (inactive); in the test with CCRF-CEM it was > 100 µM (inactive); in the test on EKVX, > 100 µM (inactive); with HCT-116 it was > 100 µM (inactive); with HCT-15 it was over 100 µM; with HL-60 it was > 100 µM (inactive). In addition, the GI50 in the test with HT-29, with Hs-578T, with MCF7, in the test on NCI/ADR-RES, in the test with OVCAR-4 and in the test on PC-3 was > 100 µM (inactive) each time. In addition, the GI50 with RXF 393, in the test on SF-268, in the test on SK-OV-3, in the test with TK-10, with UACC-257 and in the test with UACC-62 was > 100 µM (inactive) each time.
Regarding `COc1ccccc1NC1=NCC(C)S1` (stereo unspecified), the GI50 was > 100 µM (inactive) with CAKI-1; > 100 µM (inactive) in the test with CCRF-CEM; > 100 µM (inactive) with EKVX; > 100 µM (inactive) in the test on HCT-116; over 100 µM in the test on HCT-15; > 100 µM (inactive) with HL-60. In addition, the GI50 in the test on HT-29, with Hs-578T, in the test on MCF7, in the test on NCI-H226, in the test with NCI/ADR-RES and in the test on PC-3 was > 100 µM (inactive) throughout. For the same molecule, the GI50 in the test on RXF 393 is 33.8 µM (inactive); in the test with SF-268, > 100 µM (inactive); in the test on SK-OV-3, > 100 µM (inactive); with TK-10, > 100 µM (inactive); in the test on UACC-257, > 100 µM (inactive); with UACC-62 it was > 100 µM (inactive).
For `CC(=O)OCC1OC(Oc2cc(C)c(O)cc2C/C=C(\C)CC/C=C(\C)C[C@@H](C=C(C)C)OC(C)=O)C(O)C(OC(C)=O)C1OC(C)=O` (stereo partly specified), the GI50 with CAKI-1 was > 50 µM (inactive); in the test on CCRF-CEM, 9.46 µM (inactive); in the test on EKVX, 38.6 µM (inactive); in the test on HCT-116 it was 23.2 µM (inactive); in the test on HCT-15 it was 16.3 µM; in the test with HL-60, 9.79 µM (inactive). Also, the GI50 in the test on HT-29 is 17.7 µM (inactive); in the test on Hs-578T it was 13.6 µM (inactive); in the test with MCF7, 16 µM (inactive); with NCI/ADR-RES, 16.8 µM (inactive); in the test on OVCAR-4, 23.6 µM (inactive); in the test with PC-3, 18.2 µM (inactive). Further, the GI50 was 12 µM (inactive) in the test on RXF 393; 28.2 µM (inactive) with SF-268; > 50 µM (inactive) in the test on SK-OV-3; 22.9 µM (inactive) in the test with TK-10; 10 µM (inactive) with UACC-257; 13.1 µM (inactive) with UACC-62.
As to `C=C[C@]1(O)CCC[C@]2(C)C(=O)CCC12C` (stereo partly specified), the GI50 in the test on EKVX was > 100 µM (inactive); in the test on HCT-116, > 100 µM (inactive); in the test with HCT-15 it was over 100 µM; with HL-60 it was > 100 µM (inactive); in the test with HT-29, > 100 µM (inactive); in the test with Hs-578T, > 100 µM (inactive). In addition, the GI50 in the test with MCF7, in the test with NCI-H226, with NCI/ADR-RES, with OVCAR-4, in the test with PC-3 and in the test with RXF 393 was > 100 µM (inactive) each time. Moreover, the GI50 in the test with SF-268, in the test on SK-OV-3, in the test with UACC-257 and in the test on UACC-62 was > 100 µM (inactive) each time.
Turning to `CC(=O)N(C)SCC(NC(=O)C(Cc1ccccc1)NC(=O)OCC1c2ccccc2-c2ccccc21)C(=O)NC(Cc1ccccc1)C(=O)NC(Cc1cn(C=O)c2ccccc12)C(=O)NC(CCCCNC(=O)OCC1c2ccccc2-c2ccccc21)C(=O)NC(C(=O)NC(CSN(C)C(C)=O)C(=O)NC(C(N)=O)C(C)O)C(C)O` (stereo unspecified) (Fmoc-F[X31]FW(For)K(Fmoc)T[X31]T-NH2; configuration not given here), the GI50 in the test on CCRF-CEM was > 100 µM (inactive); in the test with EKVX, 84.9 µM (inactive); with HCT-116, 77.8 µM (inactive); with HCT-15, 95.1 µM; in the test on HL-60 it was > 100 µM (inactive); in the test with HT-29, > 100 µM (inactive). Moreover, the GI50 in the test with Hs-578T was > 100 µM (inactive); in the test with MCF7 it was 47.4 µM (inactive); with NCI-H226, > 100 µM (inactive); with NCI/ADR-RES, > 100 µM (inactive); with OVCAR-4, > 100 µM (inactive); in the test with PC-3, 97.1 µM (inactive). Further, the GI50 in the test on RXF 393 was 20.5 µM (inactive); in the test with SF-268, > 100 µM (inactive); in the test on SK-OV-3 it was 37.2 µM (inactive); in the test with TK-10 it was 24.2 µM (inactive); in the test on UACC-257, 90.2 µM (inactive); in the test with UACC-62, 58.6 µM (inactive).
